In the OligoGym collection:
These antisense oligonucleotides have a phosphorothioate backbone; sugars and methylation of C are not fully specified.

Assays:
Settings in all cases: ASO
ABCC1 = molecular target: ABCC1
IGF2 = molecular target: IGF2
ABCB1 = molecular target: ABCB1
IL11 = molecular target: IL11
Also: test concentration or dose not given here.

Sequence | remaining target (mRNA or protein) (fraction of control) (ABCC1) | remaining target (mRNA or protein) (fraction of control) (ABCB1) | other results
ACCGGATGGCGGTGGCTGCT | 0.73 |  | 
CGGGGCCGCAACGCCGCCTG | 0.95 |  | 
TCGGAGCCATCGGCGCTGCA | 0.8 |  | 
GCTCACACCAAGCCGGCGTC | 0.78 |  | 
CGATCTTGTGCGGTGTCCTG |  |  | remaining target (mRNA or protein) (fraction of control) (IGF2): 0.86
CAGGAGGTCCGATGGGGCGC | 0.95 |  | 
GGAACTCAGTGGAACTCAGG |  |  | remaining target (mRNA or protein) (fraction of control) (IGF2): 0.11
CGCGCTGCTTCTGGCCCCCA | 0.56 |  | 
CATCCCGACCTCGCGCTCCT |  | 0 | 
AGTTCTTCTTTGCTGCTCCA |  | 0.7 | 
CCCACCTCCATCACCATGGC |  |  | remaining target (mRNA or protein) (fraction of control) (IGF2): 0.52
ACTGACAGTTGGTTTCTTT |  | 0.84 | 
TAAATAAGGACCAGCTCCCA |  |  | remaining target (mRNA or protein) (fraction of control) (IGF2): 0.41
GGTGATCGGGCCCGGTTGCT | 0.68 |  | 
TCACCATGGCCAGCCCCAGC |  |  | remaining target (mRNA or protein) (fraction of control) (IGF2): 0.81
TGCTGTTCGTGCCCCCGCCG | 0.51 |  | 
TTTTATTGTTCAGTTTAAAAA |  | 0.92 | 
CGTCCTTGGAACGGCCACCA |  | 0.18 | 
TCTTCTTTGCTCCTCCATTG |  | 0.67 | 
GGCACCCACACGAGGACCGT | 0.79 |  | 
TACAAGATAGTACAGTACGC |  |  | remaining target (mRNA or protein) (fraction of control) (IGF2): 0.33
ACCGCGCTTTCCTCCCGCCG |  |  | remaining target (mRNA or protein) (fraction of control) (IGF2): 0.53

Sequence | remaining target (mRNA or protein) (fraction of control) (ABCC1) | remaining target (mRNA or protein) (fraction of control) (ABCB1) | other results
CTCTTCTGCCCTGTTTTGTC |  |  | remaining target (mRNA or protein) (fraction of control) (IGF2): 0.31
GCGGCGATGGGCGTGGCCAG | 0.73 |  | 
AGGCCCTGCAGTTCTGACCA | 0.95 |  | 
CGCATCTCTGTCTCTCCTGG | 0.77 |  | 
TACTCCGACTTTAGTGGAAA |  | 0.84 | 
CTCCTCCCTGGGCGCTGGCA | 0.74 |  | 
GTGAAGGCAGACCACCGACC |  |  | remaining target (mRNA or protein) (fraction of control) (IGF2): 0.27
TTGGACGGACGGCCGTGGAG |  |  | remaining target (mRNA or protein) (fraction of control) (IL11): 0.75
AAAAGTTCTTCTTTGCTGCT |  | 0.92 | 
TTGCGGTCCCCTTCAAGATC |  | 0.09 | 
CCGGTGGCGCGGGCGGCGGC | 0.69 |  | 
TCCCCTTCAAGATCCATCCC |  | 0.2 | 
TGACAGTTGGTTTCTTTCC |  | 0.85 | 
ACTTTTATTGTTCAGTTTAAA |  | 0.97 | 
CGCGCATGTCATCGGGAATG |  |  | remaining target (mRNA or protein) (fraction of control) (IGF2): 0.31
ATACTGACAGTTGGTTTCT |  | 0.65 | 
TTGAGCTTGGAAGAGCCGCTA |  | 0.54 | 
AGCCCCGGAGCGCCATGCCG | 0.74 |  | 
CGCGTCCTTGGAACGGCCAC |  | 0.15 | 
AGCCCCAGCGACCCCAGCGT |  |  | remaining target (mRNA or protein) (fraction of control) (IGF2): ≥ 1
CGGTCCCCTTCAAGATCCAT |  | 0 | 
